Reference: US10822632B2, “Medium for detecting Staphylococcus aureus, sheet for detecting S. aureus comprising same, and method for detecting S. aureus using same” (DAI NIPPON PRINTING CO., LTD., priority 2016, dated 2020)

Legend:
Test in all cases: Experiment 4: growth on culture sheet containing colistin sodium methanesulfonate
Type in all cases: cell-based
[1] = test system: Staphylococcus aureus ATCC25923; conditions: tested concentration of 0.3 to 4.1 mg/cm^3 (0.1 to 1.6 mg/ml in the sample solution)
Experimental: (§1) A given type of microbial strains to be tested were inoculated into a liquid medium (SCD broth medium), and culture was conducted at 35° C. for 24 hours to prepare a test microbial suspension. This test microbial suspension was diluted with phosphate buffered physiological saline to adjust the cell density to about 1 to 500 cfu/ml. The resulting test microbial sample (1 ml) was inoculated into the culture layer of the microorganism culture sheet prepared with the use of the medium liquid containing the components shown in Table 1 using a micropipette. The microorganism culture sheet into which the sample had been inoculated was allowed to stand in an incubator and culture was then conducted at 35° C. for 24 or 48 hours. After the completion of culture, the microorganism culture sheet was removed from the incubator. The color of the colony formed in the culture layer of the microorganism culture sheet and the color intensity were visually inspected. Each test microbial strain was subjected to the experiment described above. The names of the microbial strains to be tested used for the experiment and the conditions and the color of the colonies formed by the strains are shown in Table 2.
(§2) A test microbial sample was prepared in the same manner as in Experiment 1. Also, the microorganism culture sheet was prepared in the same manner as in Experiment 1. […]

[2] = test system: Staphylococcus aureus NBRC100910; conditions: tested concentration of 0.3 to 4.1 mg/cm^3 (0.1 to 1.6 mg/ml in the sample solution)
Experimental: as §1, §2

[3] = test system: Staphylococcus intermedius ATCC29663; parameters: key: the term “Inhibited” indicates the condition under which the growth was inhibited; a blank column indicates that a colony was formed under normal growth condition; conditions: culture 24 hours
Experimental: as §1
(§3) A test microbial sample was prepared in the same manner as in Experiment 1. Also, the microorganism culture sheet was prepared in the same manner as in Experiment 1. […] With the use of a micropipette, 1 ml of the test microbial sample was inoculated into a culture layer of the microorganism culture sheet. In the same manner as with Experiment 1, the microorganism culture sheet into which the sample had been inoculated was subjected to incubation, culture was conducted for 24 hours, and the color of the colony formed in the culture layer of the microorganism culture sheet and the color intensity were visually inspected. Each test microbial strain was subjected to the experiment described above. The names of the microbial strains to be tested used for the experiment and the conditions of the colonies formed by the strains are shown in Table 5. […] The colistin sodium methanesulfonate concentration indicated in the upper column is mass concentration (mg/cm^3) relative to the total volume of the dried culture layer before the sample was inoculated thereinto, and the concentration indicated in the lower column is mass concentration (mg/ml) relative to the total volume of the sample solution that was inoculated into the culture layer at the time of use.

[4] = test system: Staphylococcus aureus NBRC12732; parameters: key to Growth condition of the colony: the term “Inhibited” indicates the condition under which the growth was inhibited; a blank column indicates that a colony was formed under normal growth condition; conditions: for Growth condition of the colony: culture 24 hours
Experimental: as §1, §3

[5] = test system: Staphylococcus carnosus (Derived from roast beef); parameters: key to Growth condition of the colony: the term “Inhibited” indicates the condition under which the growth was inhibited; a blank column indicates that a colony was formed under normal growth condition; conditions: for Growth condition of the colony: culture 24 hours
Experimental: as §1, §3

[6] = test system: Staphylococcus saprophyticus subsp. saprophyticus NBRC102446; parameters: key to Growth condition of the colony: the term “Inhibited” indicates the condition under which the growth was inhibited; a blank column indicates that a colony was formed under normal growth condition; conditions: for Growth condition of the colony: culture 24 hours
Experimental: as §1, §3

[7] = test system: Staphylococcus sciuri ATCC29062; parameters: key to Growth condition of the colony: the term “Inhibited” indicates the condition under which the growth was inhibited; a blank column indicates that a colony was formed under normal growth condition; conditions: for Growth condition of the colony: culture 24 hours
Experimental: as §1, §3

[8] = test system: Staphylococcus xylosus NBRC109770; parameters: key to Growth condition of the colony: the term “Inhibited” indicates the condition under which the growth was inhibited; a blank column indicates that a colony was formed under normal growth condition; conditions: for Growth condition of the colony: culture 24 hours
Experimental: as §1, §3

[9] = colistin 3.3 mg/cm^3 dried culture layer (1.3 mg/ml sample solution)
[10] = colistin 3.6 mg/cm^3 dried culture layer (1.4 mg/ml sample solution)
[11] = colistin 3.8 mg/cm^3 dried culture layer (1.5 mg/ml sample solution)
[12] = colistin 4.1 mg/cm^3 dried culture layer (1.6 mg/ml sample solution)
[13] = colistin 3.1 mg/cm^3 dried culture layer (1.2 mg/ml sample solution)
[14] = mass concentration in the sample solution
[15] = mass concentration relative to total volume of dried culture layer
[16] = colistin 1.3 mg/cm^3 dried culture layer (0.5 mg/ml sample solution)
[17] = colistin 1.5 mg/cm^3 dried culture layer (0.6 mg/ml sample solution)
[18] = colistin 1.8 mg/cm^3 dried culture layer (0.7 mg/ml sample solution)
[19] = colistin 2.0 mg/cm^3 dried culture layer (0.8 mg/ml sample solution)
[20] = colistin 2.3 mg/cm^3 dried culture layer (0.9 mg/ml sample solution)
[21] = colistin 2.5 mg/cm^3 dried culture layer (1 mg/ml sample solution)
[22] = colistin 2.8 mg/cm^3 dried culture layer (1.1 mg/ml sample solution)

With colistin sodium methanesulfonate the Growth inhibition [1] was “did not inhibit the growth”, the Growth inhibition [2] was “did not inhibit the growth” and the “Growth condition of the colony” value [3, 9] was “Inhibited”. For the same substance, the “Growth condition of the colony” value [3, 10] was “Inhibited”, the “Growth condition of the colony” value [3, 11] was “Inhibited” and the “Growth condition of the colony” value [3, 12] was “Inhibited”. The “Growth condition of the colony” value [4, 13] was “Inhibited”, the “Growth condition of the colony” value [4, 9] was “Inhibited” and the “Growth condition of the colony” value [4, 10] was “Inhibited”. For the same substance, the “Growth condition of the colony” value [4, 11] was “Inhibited”, the “Growth condition of the colony” value [4, 12] was “Inhibited” and the “Concentration at which growth was inhibited” value [4, 14] was 1.2 mg/mL. The “Concentration at which growth was inhibited” value [4, 15] was 3.1 mg/mL, the “Growth condition of the colony” value [5, 16] was “Inhibited” and the “Growth condition of the colony” value [5, 17] was “Inhibited”. The “Growth condition of the colony” value [5, 18] was “Inhibited”, the “Growth condition of the colony” value [5, 19] was “Inhibited” and the “Growth condition of the colony” value [5, 20] was “Inhibited”. The “Growth condition of the colony” value [5, 21] was “Inhibited”, the “Growth condition of the colony” value [5, 22] was “Inhibited” and the “Growth condition of the colony” value [5, 13] was “Inhibited”. For the same substance, the “Growth condition of the colony” value [5, 9] was “Inhibited”, the “Growth condition of the colony” value [5, 10] was “Inhibited” and the “Growth condition of the colony” value [5, 11] was “Inhibited”. The “Growth condition of the colony” value [5, 12] was “Inhibited”, the “Concentration at which growth was inhibited” value [5, 14] was ≥ 0.5 mg/mL and the “Concentration at which growth was inhibited” value [5, 15] was ≥ 1.3 mg/mL. For the same substance, the “Growth condition of the colony” value ([6]; colistin 0.5 mg/cm^3 dried culture layer (0.2 mg/ml sample solution)) was “Inhibited”, the “Growth condition of the colony” value ([6]; colistin 0.8 mg/cm^3 dried culture layer (0.3 mg/ml sample solution)) was “Inhibited” and the “Growth condition of the colony” value ([6]; colistin 1.0 mg/cm^3 dried culture layer (0.4 mg/ml sample solution)) was “Inhibited”. The “Growth condition of the colony” value [6, 16] was “Inhibited”, the “Growth condition of the colony” value [6, 17] was “Inhibited” and the “Growth condition of the colony” value [6, 18] was “Inhibited”. The “Growth condition of the colony” value [6, 19] was “Inhibited”, the “Growth condition of the colony” value [6, 20] was “Inhibited” and the “Growth condition of the colony” value [6, 21] was “Inhibited”. For the same substance, the “Growth condition of the colony” value [6, 22] was “Inhibited”, the “Growth condition of the colony” value [6, 13] was “Inhibited” and the “Growth condition of the colony” value [6, 9] was “Inhibited”. The “Growth condition of the colony” value [6, 10] was “Inhibited”, the “Growth condition of the colony” value [6, 11] was “Inhibited” and the “Growth condition of the colony” value [6, 12] was “Inhibited”. The “Concentration at which growth was inhibited” value [6, 14] was ≥ 0.2 mg/mL, the “Concentration at which growth was inhibited” value [6, 15] was ≥ 0.5 mg/mL and the “Growth condition of the colony” value [7, 20] was “Inhibited”. For the same substance, the “Growth condition of the colony” value [7, 21] was “Inhibited”, the “Growth condition of the colony” value [7, 22] was “Inhibited” and the “Growth condition of the colony” value [7, 13] was “Inhibited”. For the same substance, the “Growth condition of the colony” value [7, 9] was “Inhibited”, the “Growth condition of the colony” value [7, 10] was “Inhibited” and the “Growth condition of the colony” value [7, 11] was “Inhibited”. For the same substance, the “Growth condition of the colony” value [7, 12] was “Inhibited”, the “Concentration at which growth was inhibited” value [7, 14] was ≥ 0.9 mg/mL and the “Concentration at which growth was inhibited” value [7, 15] was ≥ 2.3 mg/mL. For the same substance, the “Growth condition of the colony” value [8, 20] was “Inhibited”, the “Growth condition of the colony” value [8, 21] was “Inhibited” and the “Growth condition of the colony” value [8, 22] was “Inhibited”. For the same substance, the “Growth condition of the colony” value [8, 13] was “Inhibited”, the “Growth condition of the colony” value [8, 9] was “Inhibited” and the “Growth condition of the colony” value [8, 10] was “Inhibited”. For the same substance, the “Growth condition of the colony” value [8, 11] was “Inhibited”, the “Growth condition of the colony” value [8, 12] was “Inhibited” and the “Concentration at which growth was inhibited” value [8, 14] was ≥ 0.9 mg/mL. For the same substance, the “Concentration at which growth was inhibited” value [8, 15] was ≥ 2.3 mg/mL.
